Results taken from patent US20090068290A1, “BIFEPRUNOX DOSES FOR TREATING SCHIZOPHRENIA” (priority 2006, published 2009).

Columns and labels:
Format in all cases: in vivo, human
[1] = test system: adult subjects with schizophrenia; assay: PANSS negative symptom subscale score, Clinical Study Three; conditions: for Change from Baseline in PANSS Negative Symptom Subscale Score, Mean (SD) / Change from Baseline in PANSS Negative Symptom Subscale Score, Median / Trt Effect (bifeprunox - placebo), PANSS Negative Symptom Subscale Score / mean change (SD) from Baseline to Endpoint in PANSS Negative Symptom subscale score: LOCF; for Change from Baseline in PANSS Negative Symptom Subscale Score, Mean (SD) / Change from Baseline in PANSS Negative Symptom Subscale Score, Median / Trt Effect (bifeprunox - placebo), PANSS Negative Symptom Subscale Score: ITT population; for Trt Effect (bifeprunox - placebo), PANSS Negative Symptom Subscale Score: ANCOVA; for PANSS Negative Symptom subscale score, treatment effect (bifeprunox—placebo): Endpoint LOCF; for mean change (SD) from Baseline to Endpoint in PANSS Negative Symptom subscale score: ITT
Description: SECONDARY OBJECTIVES To assess the efficacy of bifeprunox in treating schizophrenia using the Positive Symptom sub-scale score of the PANSS, the Negative Symptom sub-scale score of the PANSS, the General Psychopathology sub-scale of the PANSS, Brief Psychiatric Rating Scale (BPRS) total score derived from the PANSS, BPRS psychosis score derived from the PANSS, the Clinical Global Impression Severity of Illness score (CGI-S), the Clinical Global Impression Improvement score (CGI-I), CGI-I responder rate, PANSS responder rate based on the PANSS total score, Calgary Depression Scale for Schizophrenia (CDSS), and Subject Satisfaction rating.
There were four treatment arms in this study, approximately 144 subjects per arm. […] After completing the Single-Blind Placebo Lead-in Period of at least three days, bifeprunox-treated subjects were titrated from 0.25 mg up to 20 mg/day or 30 mg/day according to a standardized titration scheme over a seven- or eight-day period, respectively. When the assigned dose was reached, subjects were maintained at that dose for the remainder of the six week treatment period. […] Subjects were hospitalized (if not already inpatients) after eligibility for study entry was verified, starting from the Screening Visit until at least 10 days after Baseline. Subjects could be hospitalized longer than 10 days if considered medically necessary by the Investigator. Rating scale assessments for efficacy and abnormal movement disorders were done weekly except for Week 5. […] Subject satisfaction with study medication was assessed at Week 6.

[2] = test system: adult subjects with schizophrenia; assay: Calgary Depression Scale for Schizophrenia (CDSS), Clinical Study Two; conditions: for CDSS Total Score, Trt Effect / Change from Baseline in CDSS Total Score, Mean (SD) / Change from Baseline in CDSS Total Score, Median / mean change (SD) from Baseline to Endpoint in CDSS score: LOCF; for CDSS score, treatment effect (bifeprunox, placebo): Endpoint LOCF; for mean change (SD) from Baseline to Endpoint in CDSS score: ITT
Description: Rating scale assessments were performed weekly, except for week 5, to measure the change from baseline to endpoint of the PANSS total score. Other assessments included: PANSS positive symptom subscale score, PANSS negative symptom subscale score, PANSS general pschopathology subscale score, BPRS total score, BPRS psychosis score, the CGI-S score, the CGI-I score, responder rates based on the PANSS total score, and the Calgary Depression Scale for Schizophrenia (CDSS). […]
Subjects who completed this study had the option to continue in the long-term. […] Risperidone-treated subjects were titrated from 2 mg to 6 mg daily over a three-day period and were subsequently maintained at 6 mg/day for the remainder of the treatment period. […] Blood samples were also obtained at Screening/Baseline, Week 3, and Week 6 for clinical laboratory assessments.

[3] = test system: adult subjects with schizophrenia; assay: Adverse events (TEAE, SAE, discontinuation, EPS-related TEAE, anticholinergic use), Clinical Study One
Description: METHODOLOGY: This was a randomized, double-blind, fixed-dose, placebo-controlled, risperidone-referenced, parallel group, multi-center study in adult subjects with schizophrenia. There were five treatment groups in this study. […] Study medication was administered once daily. After Baseline measurements were performed, the titration phase was begun. Bifeprunox treated subjects were titrated up to 5 mg, 10 mg or 20 mg according to a standardized titration schedule (Day 1: 0.125 mg, Day 2: 0.25 mg, Day 3: 0.5 mg, Day 4: 1.0 mg, Day 5: 2.0 mg, Day 6: 5.0 mg, Day 7: 10.0 mg, Day 8: 20 mg).

[4] = Bifeprunox 20 mg, Week 6/Endpoint
[5] = Bifeprunox 30 mg, Week 6/Endpoint

O=c1[nH]c2cccc(N3CCN(Cc4cccc(-c5ccccc5)c4)CC3)c2o1 [Bifeprunox, 7-[4-([1,1′-biphenyl]-3-ylmethyl)-1-piperazinyl]-2(3H)-benzoxazolone]
Change from Baseline in PANSS Negative Symptom Subscale Score, Mean (SD) ([1]; Bifeprunox 20 mg, Week 1): −1.5 (3.0) | Change from Baseline in PANSS Negative Symptom Subscale Score, Median ([1]; Bifeprunox 20 mg, Week 1): −1 | Change from Baseline in PANSS Negative Symptom Subscale Score, Mean (SD) ([1]; Bifeprunox 20 mg, Week 2): −2.7 (3.6) | Change from Baseline in PANSS Negative Symptom Subscale Score, Median ([1]; Bifeprunox 20 mg, Week 2): −3 | Change from Baseline in PANSS Negative Symptom Subscale Score, Mean (SD) ([1]; Bifeprunox 20 mg, Week 3): −3.2 (4.4) | Change from Baseline in PANSS Negative Symptom Subscale Score, Median ([1]; Bifeprunox 20 mg, Week 3): −3 | Change from Baseline in PANSS Negative Symptom Subscale Score, Mean (SD) ([1]; Bifeprunox 20 mg, Week 4): −3.3 (4.8) | Change from Baseline in PANSS Negative Symptom Subscale Score, Median ([1]; Bifeprunox 20 mg, Week 4): −3 | Change from Baseline in PANSS Negative Symptom Subscale Score, Mean (SD) [1, 4]: −3.3 (5.0) | Change from Baseline in PANSS Negative Symptom Subscale Score, Median [1, 4]: −3 | Trt Effect (bifeprunox - placebo), PANSS Negative Symptom Subscale Score [1, 4]: −0.9 | Change from Baseline in PANSS Negative Symptom Subscale Score, Mean (SD) ([1]; Bifeprunox 30 mg, Week 1): −1.3 (4.0) | Change from Baseline in PANSS Negative Symptom Subscale Score, Median ([1]; Bifeprunox 30 mg, Week 1): −1 | Change from Baseline in PANSS Negative Symptom Subscale Score, Mean (SD) ([1]; Bifeprunox 30 mg, Week 2): −1.9 (4.3) | Change from Baseline in PANSS Negative Symptom Subscale Score, Median ([1]; Bifeprunox 30 mg, Week 2): −1 | Change from Baseline in PANSS Negative Symptom Subscale Score, Mean (SD) ([1]; Bifeprunox 30 mg, Week 3): −2.5 (4.8) | Change from Baseline in PANSS Negative Symptom Subscale Score, Median ([1]; Bifeprunox 30 mg, Week 3): −2 | Change from Baseline in PANSS Negative Symptom Subscale Score, Mean (SD) ([1]; Bifeprunox 30 mg, Week 4): −2.6 (5.0) | Change from Baseline in PANSS Negative Symptom Subscale Score, Median ([1]; Bifeprunox 30 mg, Week 4): −2 | Change from Baseline in PANSS Negative Symptom Subscale Score, Mean (SD) [1, 5]: −3.1 (5.2) | Change from Baseline in PANSS Negative Symptom Subscale Score, Median [1, 5]: −2 | Trt Effect (bifeprunox - placebo), PANSS Negative Symptom Subscale Score [1, 5]: −0.6 | PANSS Negative Symptom subscale score, treatment effect (bifeprunox—placebo) ([1]; bifeprunox 20 mg): −0.9 | mean change (SD) from Baseline to Endpoint in PANSS Negative Symptom subscale score ([1]; bifeprunox 20 mg): −3.3 (5.0) | PANSS Negative Symptom subscale score, treatment effect (bifeprunox—placebo) ([1]; bifeprunox 30 mg): −0.6 | mean change (SD) from Baseline to Endpoint in PANSS Negative Symptom subscale score ([1]; bifeprunox 30 mg): −3.1 (5.2) | CDSS Total Score, Trt Effect ([2]; 30 mg versus placebo, Week 6/Endpoint): −0.38 | Change from Baseline in CDSS Total Score, Mean (SD) ([2]; 30 mg, Week 1): −0.01 (2.90) | Change from Baseline in CDSS Total Score, Median ([2]; 30 mg, Week 1): 0.0 | Change from Baseline in CDSS Total Score, Mean (SD) ([2]; 30 mg, Week 2): −0.51 (3.37) | Change from Baseline in CDSS Total Score, Median ([2]; 30 mg, Week 2): 0.0 | Change from Baseline in CDSS Total Score, Mean (SD) ([2]; 30 mg, Week 3): −0.51 (3.56) | Change from Baseline in CDSS Total Score, Median ([2]; 30 mg, Week 3): 0.0 | Change from Baseline in CDSS Total Score, Mean (SD) ([2]; 30 mg, Week 4): −0.63 (3.48) | Change from Baseline in CDSS Total Score, Median ([2]; 30 mg, Week 4): 0.0 | Change from Baseline in CDSS Total Score, Mean (SD) ([2]; 30 mg, Week 6/Endpoint): −0.66 (3.64) | Change from Baseline in CDSS Total Score, Median ([2]; 30 mg, Week 6/Endpoint): 0.0 | CDSS Total Score, Trt Effect ([2]; 40 mg versus placebo, Week 6/Endpoint): 0.29 | Change from Baseline in CDSS Total Score, Mean (SD) ([2]; 40 mg, Week 1): −0.54 (2.56) | Change from Baseline in CDSS Total Score, Median ([2]; 40 mg, Week 1): 0.0 | Change from Baseline in CDSS Total Score, Mean (SD) ([2]; 40 mg, Week 2): −0.32 (2.95) | Change from Baseline in CDSS Total Score, Median ([2]; 40 mg, Week 2): 0.0 | Change from Baseline in CDSS Total Score, Mean (SD) ([2]; 40 mg, Week 3): −0.44 (3.09) | Change from Baseline in CDSS Total Score, Median ([2]; 40 mg, Week 3): 0.0 | Change from Baseline in CDSS Total Score, Mean (SD) ([2]; 40 mg, Week 4): −0.19 (3.32) | Change from Baseline in CDSS Total Score, Median ([2]; 40 mg, Week 4): 0.0 | Change from Baseline in CDSS Total Score, Mean (SD) ([2]; 40 mg, Week 6/Endpoint): 0.01 (3.66) | Change from Baseline in CDSS Total Score, Median ([2]; 40 mg, Week 6/Endpoint): 0.0 | CDSS score, treatment effect (bifeprunox, placebo) ([2]; bifeprunox 30 mg): −0.38 | mean change (SD) from Baseline to Endpoint in CDSS score ([2]; bifeprunox 30 mg): −0.66 (3.64) | CDSS score, treatment effect (bifeprunox, placebo) ([2]; bifeprunox 40 mg): 0.29 | mean change (SD) from Baseline to Endpoint in CDSS score ([2]; bifeprunox 40 mg): 0.01 (3.66) | TEAE Akathisia, % ([3]; 5 mg, Safety Population): (<1%) | TEAE Benign Skin Neoplasm Nos, % ([3]; 5 mg, Safety Population): (<1%) | TEAE Muscle Stiffness, % ([3]; 5 mg, Safety Population): (<1%) | TEAE Muscle Tightness, % ([3]; 5 mg, Safety Population): (<1%) | TEAE Muscle Twitching, % ([3]; 5 mg, Safety Population): (2%) | TEAE NEOPLASMS BENIGN, MALIGNANT AND UNSPECIFIED (INCL CYSTS AND POLYPS), % ([3]; 5 mg, Safety Population): (2%) | TEAE NERVOUS SYSTEM DISORDERS, % ([3]; 5 mg, Safety Population): (48%) | TEAE Neck Pain, % ([3]; 5 mg, Safety Population): (<1%) | TEAE Pain in Jaw, % ([3]; 5 mg, Safety Population): (<1%) | TEAE Pain in Limb, % ([3]; 5 mg, Safety Population): (<1%) | TEAE Skin Papilloma, % ([3]; 5 mg, Safety Population): (<1%) | TEAE Akathisia, % ([3]; 10 mg, Safety Population): (2%) | TEAE Muscle Stiffness, % ([3]; 10 mg, Safety Population): (<1%) | TEAE Muscle Twitching, % ([3]; 10 mg, Safety Population): (<1%) | TEAE Musculoskeletal Discomfort, % ([3]; 10 mg, Safety Population): (<1%) | TEAE Myalgia, % ([3]; 10 mg, Safety Population): (<1%) | TEAE NERVOUS SYSTEM DISORDERS, % ([3]; 10 mg, Safety Population): (50%) | TEAE Neck Pain, % ([3]; 10 mg, Safety Population): (3%) | TEAE Pain in Jaw, % ([3]; 10 mg, Safety Population): (<1%) | TEAE Pain in Limb, % ([3]; 10 mg, Safety Population): (2%) | TEAE Akathisia, % ([3]; 20 mg, Safety Population): (3%) | TEAE Muscle Spasms, % ([3]; 20 mg, Safety Population): (2%) | TEAE Muscle Twitching, % ([3]; 20 mg, Safety Population): (<1%) | TEAE Myalgia, % ([3]; 20 mg, Safety Population): (<1%) | TEAE NERVOUS SYSTEM DISORDERS, % ([3]; 20 mg, Safety Population): (43%) | TEAE Neck Pain, % ([3]; 20 mg, Safety Population): (2%) | TEAE Pain in Limb, % ([3]; 20 mg, Safety Population): (3%) | TEAE Sensation of Heaviness, % ([3]; 20 mg, Safety Population): (<1%) | Acute Psychosis, % ([3]; BX 5 mg): (<1%) | Aggression, % ([3]; BX 5 mg): (<1%) | Agitation Aggravated, % ([3]; BX 5 mg): (4%) | Agitation, % ([3]; BX 5 mg): (11%) | Anxiety Aggravated, % ([3]; BX 5 mg): (3%) | Anxiety, % ([3]; BX 5 mg): (5%) | Confusion, % ([3]; BX 5 mg): (<1%) | DIZZINESS, % ([3]; BX 5 mg): (14%) | DYSKINESIA, % ([3]; BX 5 mg): (<1%)
